“And” between values parts separate entries of the source, which are not always exact repeats. Equal entries are not always repeated.
target: human mGluR5A (Homo sapiens, UniProt P41594); test: mGluR5 FLIPR Assay; type: cell-based; details: positive modulator activity; HEK293 (ZF) cells with human mGluR5A and rat GLAST; Ca++ response to ~EC10 glutamate
Sequence (P41594 21-1180 isoform P41594-2): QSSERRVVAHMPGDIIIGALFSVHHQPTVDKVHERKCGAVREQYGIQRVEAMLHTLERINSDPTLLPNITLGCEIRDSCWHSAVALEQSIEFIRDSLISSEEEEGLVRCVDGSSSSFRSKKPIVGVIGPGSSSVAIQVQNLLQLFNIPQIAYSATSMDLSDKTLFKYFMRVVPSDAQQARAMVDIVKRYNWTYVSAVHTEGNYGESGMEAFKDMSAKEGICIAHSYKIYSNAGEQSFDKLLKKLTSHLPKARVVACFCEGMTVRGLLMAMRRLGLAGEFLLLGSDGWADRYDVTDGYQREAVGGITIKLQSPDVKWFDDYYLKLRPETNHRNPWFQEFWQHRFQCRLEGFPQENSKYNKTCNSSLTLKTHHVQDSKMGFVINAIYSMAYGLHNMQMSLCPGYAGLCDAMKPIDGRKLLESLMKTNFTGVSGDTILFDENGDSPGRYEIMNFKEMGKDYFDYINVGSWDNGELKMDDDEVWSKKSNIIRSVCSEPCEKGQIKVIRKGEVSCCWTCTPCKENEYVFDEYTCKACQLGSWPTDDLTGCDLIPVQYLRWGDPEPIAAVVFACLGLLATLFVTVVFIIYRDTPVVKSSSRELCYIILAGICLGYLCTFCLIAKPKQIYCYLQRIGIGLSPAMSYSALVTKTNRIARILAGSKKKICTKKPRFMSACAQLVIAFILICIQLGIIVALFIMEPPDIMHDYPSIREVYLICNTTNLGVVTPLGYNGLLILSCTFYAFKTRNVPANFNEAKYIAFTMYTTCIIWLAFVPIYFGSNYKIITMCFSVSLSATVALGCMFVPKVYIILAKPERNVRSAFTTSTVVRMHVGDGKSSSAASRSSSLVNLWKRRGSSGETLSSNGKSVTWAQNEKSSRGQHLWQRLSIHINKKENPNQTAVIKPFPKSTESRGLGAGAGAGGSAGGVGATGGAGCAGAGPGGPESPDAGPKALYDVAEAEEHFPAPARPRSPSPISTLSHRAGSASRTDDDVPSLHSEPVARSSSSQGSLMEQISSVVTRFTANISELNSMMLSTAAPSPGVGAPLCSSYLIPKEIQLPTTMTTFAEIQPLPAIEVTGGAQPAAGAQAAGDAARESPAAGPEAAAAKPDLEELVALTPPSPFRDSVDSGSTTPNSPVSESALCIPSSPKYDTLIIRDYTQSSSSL

Q: Which EC50 does the source give for O=C1N[C@H](c2cc(C#Cc3ccnc(C4CC4)c3)cnc2F)[C@@H](c2ccc(F)cc2)O1 [Example 152, (4R,5R)-4-(5-((2-Cyclopropylpyridin-4-yl)ethynyl)-2-fluoropyridin-3-yl)-5-(4-fluorophenyl)oxazolidin-2-one] here?
A: Its EC50 is > 1000 nM.

Q: For O=C1N[C@H](c2cncc(C#Cc3cnccn3)c2)[C@@H](c2cc(F)ccc2F)O1 [Example 396, (4R,5R)-5-(2,5-difluorophenyl)-4-(5-(pyrazin-2-ylethynyl)pyridin-3-yl)oxazolidin-2-one], which EC50 is on record?
A: Its EC50 is < 100 nM.

Q: O=C1N[C@H](c2nc(C#Cc3ccccc3)ccc2F)[C@@H](c2ccccc2)O1 (single isomer, unassigned) [Example 305] was tested. Which EC50 did it give?
A: The EC50 was > 1000 nM.

Q: With Cc1ccc([C@H]2OC(=O)N[C@@H]2c2cccc(C#Cc3ccccc3)c2)cc1 [Example 107] as the compound, how does the EC50 read?
A: The EC50 was < 100 nM.

Q: With O=C1N[C@@H](c2cncc(C#Cc3ccccc3)c2)[C@H](c2cccs2)O1 (single isomer, unassigned) [Example 345] as the compound, how does the EC50 read?
A: The EC50 was > 1000 nM.

Q: How did the EC50 turn out when O=C1N[C@@H](c2cc(C#Cc3ccccc3Cl)ccn2)[C@H](c2ccc(F)cc2)O1 (single isomer, unassigned) [Example 352] was run?
A: The EC50 was > 1000 nM.

Q: With O=C1N[C@H](c2cccc(C#Cc3ccccc3)n2)[C@@H](c2c(F)cc(F)cc2F)O1 (single isomer, unassigned) [Example 313] as the compound, how does the EC50 read?
A: Its EC50 is 100 to 1000 nM.

Q: Which EC50 does the source give for O=C1N[C@@H](c2cccc(C#Cc3ccccc3)c2)[C@H](c2cccs2)O1 (single isomer, unassigned) [Example 105] here?
A: The EC50 was > 30000 nM.

Q: For O=C1N[C@H](c2cncc(C#Cc3cncc(F)c3)c2)[C@@H](c2cccc(F)c2)O1 [Example 256], which EC50 is on record?
A: The EC50 was < 100 nM.

Q: How did the EC50 turn out when O=C1N[C@@H](c2cccc(C#Cc3ccccc3)c2)[C@@H](c2ccccc2)O1 [Example 97, (4S,5R)-5-phenyl-4-(3-(phenylethynyl)phenyl)oxazolidin-2-one] was run?
A: Its EC50 is > 1000 nM.

Q: With O=C1NC(c2cccc(C#Cc3ncccc3F)n2)C(c2ccc(F)cc2)O1 (single isomer, unassigned) [Example 371] as the compound, how does the EC50 read?
A: The EC50 was > 1000 nM.

Q: O=C1N[C@H](c2cncc(C#Cc3ncccc3F)c2)[C@@H](c2ccc(F)cc2)O1 [Example 209] was tested. Which EC50 did it give?
A: The EC50 was < 100 nM.

Q: With COc1cccc([C@@H]2OC(=O)N[C@H]2c2cccc(C#Cc3ccccc3F)c2)c1 (stereo in doubt) [Example 122, (4S,5S)-4-(3-((2-fluorophenyl)ethynyl)phenyl)-5-(3-methoxyphenyl)oxazolidin-2-one] as the compound, how does the EC50 read?
A: Its EC50 is > 1000 nM.

Q: With O=C1N[C@H](c2cccc(C#Cc3ccccc3)c2)[C@@H](c2nc(-c3ccncc3)no2)O1 [Example 160] as the compound, how does the EC50 read?
A: Its EC50 is > 1000 nM.

Q: For Cc1cccc([C@@H]2OC(=O)N[C@H]2c2cccc(C#Cc3ccccc3)c2)c1 (racemic) [Example 99, trans-4-(3-(phenylethynyl)phenyl)-5-m-tolyloxazolidin-2-one], which EC50 is on record?
A: Its EC50 is < 100 nM.

Q: C[C@@]1(c2cncc(C#Cc3ccccc3)c2)NC(=O)O[C@H]1c1cc(F)ccc1F (single isomer, unassigned) [Example 406] was tested. Which EC50 did it give?
A: Its EC50 is 100 to 1000 nM.

Q: For O=C1N[C@@H](c2cccc(C#Cc3cccc(F)c3)n2)[C@H](c2ccccc2)O1 (single isomer, unassigned) [Example 13], which EC50 is on record?
A: Its EC50 is > 1000 nM.

Q: O=C1N[C@H](c2cccc(C#Cc3ccccc3)c2)C(c2cccs2)O1 (single isomer, unassigned) [Example 104] was tested. Which EC50 did it give?
A: Its EC50 is < 100 nM.

Q: Which EC50 does the source give for COc1cccc([C@H]2OC(=O)N[C@@H]2c2cccc(C#Cc3cncc(Cl)c3)c2)c1 [Example 50, (4R,5R)-4-(3-((5-Chloropyridin-3-yl)ethnyl)phenyl)-5-(3-methoxyphenyl)oxazolidin-2-one] here?
A: Its EC50 is 100 to 1000 nM and 353 nM.

Q: Which EC50 does the source give for O=C1N[C@H](c2cccc(C#Cc3cccnc3)c2)[C@@H](c2ccncn2)O1 [Example 241] here?
A: Its EC50 is > 1000 nM.

Q: Which EC50 does the source give for O=C1N[C@H](c2cncc(C#Cc3ccccn3)c2)[C@@H](c2ccc(F)cc2)O1 [Example 210] here?
A: Its EC50 is < 100 nM.

Q: For O=C1N[C@H](c2cc(C#Cc3ccccc3F)ccn2)[C@@H](c2ccc(F)cc2)O1 (single isomer, unassigned) [Example 353], which EC50 is on record?
A: Its EC50 is < 100 nM.

Q: With O=C1N[C@H](c2cncc(C#Cc3cncc(F)c3)c2)[C@@H](c2cc(F)ccc2F)O1 [Example 187] as the compound, how does the EC50 read?
A: Its EC50 is < 100 nM.

Q: With O=C1N[C@@H](c2cncc(C#Cc3ccccc3)c2)[C@H](c2ccc(F)cc2)O1 (single isomer, unassigned) [Example 40] as the compound, how does the EC50 read?
A: Its EC50 is > 1000 nM.

Q: Which EC50 does the source give for Cc1cccc([C@@H]2OC(=O)N[C@@H]2c2cccc(C#Cc3ccccc3)c2)c1 (racemic) [Example 98, cis-4-(3-(phenylethynyl)phenyl)-5-m-tolyloxazolidin-2-one] here?
A: Its EC50 is > 1000 nM.

Q: With COc1cccc([C@@H]2OC(=O)N[C@H]2c2cccc(C#Cc3ccc(F)cc3F)c2)c1 [Example 128, (4S,5S)-4-(3-((2,4-difluorophenyl)ethynyl)phenyl)-5-(3-methoxyphenyl)oxazolidin-2-one] as the compound, how does the EC50 read?
A: Its EC50 is > 1000 nM.

Q: For COc1cccc([C@H]2OC(=O)N[C@@H]2c2cccc(C#Cc3ccccc3)n2)c1 (single isomer, unassigned) [Example 5], which EC50 is on record?
A: The EC50 was < 100 nM.

Q: Which EC50 does the source give for COc1cccc([C@H]2OC(=O)N[C@@H]2c2cccc(C#Cc3ncccn3)c2)c1 [Example 64, (4R,5R)-5-(3-Methoxyphenyl)-4-(3-(pyrimidin-2-ylethynyl)phenyl)oxazolidin-2-one] here?
A: The EC50 was > 30000 nM.

Q: How did the EC50 turn out when C[C@@]1(c2cc(F)ccc2F)OC(=O)N[C@@H]1c1cncc(C#Cc2ccccc2)c1 [Example 290] was run?
A: The EC50 was > 1000 nM.

Q: With COc1cccc([C@@H]2OC(=O)N[C@H]2c2cccc(C#Cc3ccccc3)c2)c1 [Example 2, (4S,5S)-5-(3-Methoxyphenyl)-4-(3-(phenylethynyl)phenyl)oxazolidin-2-one] as the compound, how does the EC50 read?
A: Its EC50 is > 30000 nM.

Q: Which EC50 does the source give for O=C1N[C@@H](c2cccc(C#Cc3ccccc3)c2)[C@H](c2cnccn2)O1 [Example 245] here?
A: Its EC50 is > 1000 nM.

Q: For COc1cccc([C@H]2OC(=O)N[C@@H]2c2cccc(C#Cc3cnc4ccccc4c3)c2)c1 [Example 76, (4R,5R)-5-(3-Methoxyphenyl)-4-(3-(quinolin-3-ylethynyl)phenyl)oxazolidin-2-one], which EC50 is on record?
A: Its EC50 is > 30000 nM.

Q: With O=C1N[C@H](c2cc(C#Cc3ncccc3F)cnc2F)[C@@H](c2cccc(F)c2)O1 [Example 147, (4R,5R)-4-(2-Fluoro-5-((3-fluoropyridin-2-yl)ethynyl)pyridin-3-yl)-5-(3-fluorophenyl)oxazolidin-2-one] as the compound, how does the EC50 read?
A: The EC50 was > 1000 nM.

Q: How did the EC50 turn out when O=C1N[C@H](c2cncc(C#Cc3ccccc3)c2)[C@@H](c2cc(F)cc(F)c2)O1 [Example 170] was run?
A: The EC50 was < 100 nM.

Q: For COc1cccc([C@H]2OC(=O)N[C@@H]2c2cccc(C#Cc3cncnc3)c2)c1 [Example 65, (4R,5R)-5-(3-Methoxyphenyl)-4-(3-(pyrimidin-5-ylethynyl)phenyl)oxazolidin-2-one], which EC50 is on record?
A: The EC50 was 100 to 1000 nM and 139 nM.

Q: Which EC50 does the source give for O=C1N[C@H](c2cccc(C#Cc3ccccc3)n2)[C@@H](c2ccccc2)O1 (single isomer, unassigned) [Example 10] here?
A: The EC50 was < 100 nM.

Q: Which EC50 does the source give for CNc1ncc(C#Cc2cccc([C@H]3NC(=O)O[C@@H]3c3cccc(OC)c3)c2)cn1 [Example 93] here?
A: The EC50 was > 1000 nM.

Q: How did the EC50 turn out when O=C1N[C@H](c2cncc(C#Cc3ccccn3)c2)[C@@H](c2cc(F)cc(F)c2)O1 [Example 177] was run?
A: Its EC50 is > 1000 nM.

Q: Which EC50 does the source give for O=C1N[C@H](c2ccc(C#Cc3ccccc3)cn2)[C@@H](c2cccc(F)c2)O1 [Example 410, (4R,5R)-5-(3-fluorophenyl)-4-(5-(phenylethynyl)pyridin-2-yl)oxazolidin-2-one] here?
A: Its EC50 is > 1000 nM.

Q: For O=C1N[C@@H](c2cc(C#Cc3ccccc3)cnc2F)[C@H](c2ccccc2F)O1 (single isomer, unassigned) [Example 374], which EC50 is on record?
A: The EC50 was > 1000 nM.
